From BindingDB's records for doi:10.1021/ml400235c (Korea Research Institute of Technology, 2013)

What was measured:
[1] = Antagonist activity at PAR1 in washed human platelets assessed as inhibition of haTRAP-induced platelet aggregation preincubated for 1 hr followed by haTRAP addition measured for 10 mins by spectrophotometric analysis
[2] = Antagonist activity at PAR1 in human platelet rich plasma assessed as inhibition of haTRAP-induced platelet aggregation preincubated for 1 hr followed by haTRAP addition measured for 10 mins by spectrophotometric analysis

Row | IC50 [1] [nM] | IC50 [2] [nM] | Structure (SMILES)
1 | 2.9 | 100 | CC1(OC(N)=O)C[C@@H]2CCCC[C@@H]2[C@H]1C=Cc1ccc(-c2cccc(F)c2)cn1 (stereo not given in full)
2 | 210 | 8900 | CC(=O)N(C)C1C[C@@H]2CCCC[C@@H]2[C@H]1/C=C/c1ccc(-c2cccc(F)c2)cn1 (stereo not given in full)
3 | 140 | 3900 | CS(=O)(=O)NC1C[C@@H]2CCCC[C@@H]2[C@H]1/C=C/c1ccc(-c2cccc(F)c2)cn1 (stereo not given in full)
4 | 7.2 | 210 | O=C1NCC2(C[C@@H]3CCCC[C@@H]3[C@H]2C=Cc2ccc(-c3cccc(F)c3)cn2)O1 (stereo not given in full)
5 | 2.2 | 97 | CN(C1C[C@@H]2CCCC[C@@H]2[C@H]1/C=C/c1ccc(-c2cccc(F)c2)cn1)S(C)(=O)=O (stereo not given in full)
6 | 410 | 4100 | Fc1cccc(-c2ccc(/C=C/[C@@H]3[C@H]4CCCC[C@H]4CC34OCCO4)nc2)c1
7 | 6 | – | CS(=O)(=O)OC1C[C@@H]2CCCC[C@@H]2[C@H]1/C=C/c1ccc(-c2cccc(F)c2)cn1 (stereo not given in full)
8 | 1.5 | 120 | CCOC(=O)N[C@@H]1CC[C@@H]2[C@@H](C1)C[C@H]1C(=O)O[C@H](C)[C@H]1[C@H]2C=Cc1ccc(-c2cccc(F)c2)cn1 [Ethyl [(3aR,4aR,8aR,9aS)-9(S)-[(E)-2-[5-(3-fluorophenyl)-2-pyridinyl]ethenyl]dodecahydro-1(R)-methyl-3-oxonaphtho[2,3-c]furan-6(R)-yl]carbamate]
